Reference: publication PMC9291951 (British Journal of Pharmacology, 2020)
One block for each molecule: values may come before it.

Tests used:
[1] = target: hTRPV4-Y591H (Homo sapiens, UniProt Q9HBA0, Y591H); experiment: Ca2+ imaging; format: cell-based
[2] = target: human TRPV4 wild-type (hTRPV4-WT) (Homo sapiens, UniProt Q9HBA0); experiment: Ca2+ imaging; format: cell-based; settings: HeLa cells
[3] = target: hTRPV4-D546A (Homo sapiens, UniProt Q9HBA0, D546A); experiment: Ca2+ imaging; format: cell-based; settings: for Blocking effect in mutant versus wild-type channel: D546A
[4] = target: hTRPV4-Y591A (Homo sapiens, UniProt Q9HBA0, Y591A); experiment: Ca2+ imaging; format: cell-based
[5] = system: TRPV4; settings: read-out: IC50 (antagonist); ref Cheung et al., 2017; cited from earlier work

Sequence of hTRPV4-D546A (Q9HBA0 whole entry D546A): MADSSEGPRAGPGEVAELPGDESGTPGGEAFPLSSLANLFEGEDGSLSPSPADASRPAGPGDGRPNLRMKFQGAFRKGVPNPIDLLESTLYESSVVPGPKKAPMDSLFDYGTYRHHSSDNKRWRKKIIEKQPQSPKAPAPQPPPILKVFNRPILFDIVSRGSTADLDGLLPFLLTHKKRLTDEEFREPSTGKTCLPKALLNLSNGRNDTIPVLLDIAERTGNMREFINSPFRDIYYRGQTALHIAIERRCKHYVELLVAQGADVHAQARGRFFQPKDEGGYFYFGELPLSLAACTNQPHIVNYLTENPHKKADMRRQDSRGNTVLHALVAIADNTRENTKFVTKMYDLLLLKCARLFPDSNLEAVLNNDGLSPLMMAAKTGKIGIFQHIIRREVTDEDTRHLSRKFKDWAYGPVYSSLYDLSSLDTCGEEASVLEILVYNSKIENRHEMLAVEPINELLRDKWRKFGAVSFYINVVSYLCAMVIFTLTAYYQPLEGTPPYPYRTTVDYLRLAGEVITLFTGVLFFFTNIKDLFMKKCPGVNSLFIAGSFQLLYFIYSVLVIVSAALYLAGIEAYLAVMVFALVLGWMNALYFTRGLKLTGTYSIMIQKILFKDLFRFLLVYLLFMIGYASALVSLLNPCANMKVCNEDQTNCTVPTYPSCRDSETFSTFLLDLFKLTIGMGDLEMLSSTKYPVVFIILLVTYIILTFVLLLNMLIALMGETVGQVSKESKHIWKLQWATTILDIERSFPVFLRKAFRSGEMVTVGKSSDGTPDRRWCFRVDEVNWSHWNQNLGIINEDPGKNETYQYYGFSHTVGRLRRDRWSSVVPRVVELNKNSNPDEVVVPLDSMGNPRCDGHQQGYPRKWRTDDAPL
Sequence of hTRPV4-Y591H (Q9HBA0 whole entry Y591H): as the sequence (Q9HBA0 whole entry D546A) above, with A546D, Y591H counted along it
Sequence of hTRPV4-Y591A (Q9HBA0 whole entry Y591A): as the sequence (Q9HBA0 whole entry D546A) above, with A546D, Y591A counted along it
Sequence of human TRPV4 wild-type (hTRPV4-WT) (Q9HBA0 whole entry): as the sequence (Q9HBA0 whole entry D546A) above, with A546D counted along it

Channel activation by agonist [2]: activated
Channel activation by agonist ([3]; TRPV4-D546A, HeLa cells, Ca2+ imaging): activated
Compound: CC(C)C[C@H](NC(=O)c1cc2ccccc2s1)C(=O)N1CCN(C(=O)[C@H](CO)NS(=O)(=O)c2ccc(Cl)cc2Cl)CC1 [GSK1016790A, N‐((1S)‐1‐{[4‐((2S)‐2‐{[(2,4‐Dichlorophenyl)sulfonyl]amino}‐3‐hydroxypropanoyl)‐1‐piperazinyl]carbonyl}‐3‐methylbutyl)‐1‐benzothiophene‐2‐carboxamide]
Channel response to agonist ([1]; hTRPV4-Y591H, 1-nM GSK1016790A): Neither hTRPV4‐Y591A nor hTRPV4‐Y591H responded
Channel response to agonist ([4]; hTRPV4-Y591A, 1-nM GSK1016790A): Neither hTRPV4‐Y591A nor hTRPV4‐Y591H responded

Compound: CC(C)(O)c1cnc(N2C[C@@]3(CCC[C@](C)(Cn4cnc5ccc(C#N)cc54)C3)OC2=O)cn1 [GSK2798745]
IC50 [5]: 0.016 µM

Compound: N.N.N.N.N.N.N.N.N.N.N.N.N.N.[Cl-].[Cl-].[Cl-].[Cl-].[Cl-].[Cl-].[O-2].[O-2].[Ru+3].[Ru+3].[Ru+4] [ruthenium red]
Blocking effect in mutant versus wild-type channel ([1]; Y591H, 30% hypotonic solution, 1-μM ruthenium red): not affected
Blocking effect in mutant versus wild-type channel ([3]; 1-nM GSK1016790A, ruthenium red 10 nM to 10 μM): not affected
Blocking effect in mutant versus wild-type channel ([3]; 30% hypotonic solution, 1-μM ruthenium red): not affected
Blocking effect in mutant versus wild-type channel ([4]; Y591A, 30% hypotonic solution, 1-μM ruthenium red): not affected
